Measurements as given in ChEMBL document CHEMBL1150587, “Evaluation of the potential cancer chemotherapeutic efficacy of natural product isolates employing in vivo hollow fiber tests” (J Nat Prod, 2002).
Active and inactive are the calls of the source. The calls are words filed in the database; no cut-off is given here.

Experiments:
[1] = test system: SK-MEL-2; assay: Cytotoxicity against human SK-MEL-2 cells after 72 hrs by SRB assay; type: functional, cell-based; conditions: SK-MEL-2, 72 h
[2] = test system: Mus musculus; assay: Toxicity in NCr nu/nu mouse subcutaneously implanted with human KB cells assessed as body weight change at 553.1 umol/kg, ip administered from day 3 to 6 after implantation measured on day 7; type: organism-based; conditions: in vivo
[3] = test system: Col2; assay: Cytotoxicity against human Col2 cells after 72 hrs by SRB assay; type: functional, cell-based; conditions: Col2, 72 h
[4] = test system: P388; assay: Cytotoxicity against mouse P388 cells; type: functional, cell-based
[5] = Cytotoxicity against human BC1 cells after 72 hrs by SRB assay; conditions: BC1, 72 h
[6] = test system: P388; assay: Cytotoxicity against mouse P388 cells after 72 hrs by SRB assay; type: functional, cell-based; conditions: P388, 72 h
[7] = Cytotoxicity against human KBV1 cells after 72 hrs by SRB assay; type: functional, cell-based; conditions: KB-V1, 72 h
[8] = Inhibition of protein farnesyltransferase
[9] = test system: KB; assay: Growth inhibition of human KB cells implanted intraperitoneally to NCr nu/nu mouse at 553.1 umol/kg, ip administered from day 3 to 6 after implantation measured on day 7 by MTT-based hollow-fiber test; type: functional
[10] = test system: KB; assay: Growth inhibition of human KB cells implanted subcutaneously to NCr nu/nu mouse at 553.1 umol/kg, ip administered from day 3 to 6 after implantation measured on day 7 by MTT-based hollow-fiber test; type: functional
[11] = test system: KB; assay: Cytotoxicity against human KB cells after 72 hrs by SRB assay; type: functional, cell-based
[12] = test system: MCF7; assay: Cytotoxicity against human MCF7 cells after 72 hrs by SRB assay; conditions: MCF7, 72 h
[13] = test system: LNCaP; assay: Cytotoxicity against human LNCAP cells after 72 hrs by SRB assay; type: functional, cell-based
[14] = test system: Lu1; assay: Cytotoxicity against human Lu1 cells after 72 hrs by SRB assay; type: functional, cell-based; conditions: Lu1, 72 h
[15] = test system: SW626; assay: Cytotoxicity against human SW626 cells after 72 hrs by SRB assay; type: functional, cell-based; conditions: SW626, 72 h
[16] = test system: SK-MEL-2; assay: Growth inhibition of ip dosed subcutaneously implanted human SK-MEL-2 cells to NCr nu/nu mouse administered from day 3 to 6 after implantation measured on day 7 by MTT-based hollow-fiber test; type: functional, organism-based
[17] = test system: KB; assay: Growth inhibition of human KB cells implanted subcutaneously to NCr nu/nu mouse assessed as tumor size at 72.6 to 290.7 umol/kg, ip administered on day 10, 13, 16, 20 of implantation; type: functional, organism-based
[18] = test system: Mus musculus; assay: Toxicity in NCr nu/nu mouse subcutaneously implanted with human KB cells assessed as mortality at 145.3 umol/kg, ip administered on day 10, 13, 16, 20 of implantation; type: organism-based; conditions: in vivo
[19] = test system: KB; assay: Growth inhibition of human KB cells implanted intraperitoneally to NCr nu/nu mouse at 72.6 to 290.7 umol/kg, ip administered from day 3 to 6 after implantation measured on day 7 by MTT-based hollow-fiber test; type: functional
[20] = test system: SW626; assay: Growth inhibition of human SW626 cells implanted intraperitoneally to NCr nu/nu mouse at 72.6 to 290.7 umol/kg, ip administered from day 3 to 6 after implantation measured on day 7 by MTT-based hollow-fiber test; type: functional
[21] = test system: Mus musculus; assay: Toxicity in tumor cell implanted NCr nu/nu mouse assessed as body weight change at 290.7 umol/kg, ip administered from day 3 to 6 after implantation measured on day 7; type: organism-based; conditions: in vivo
[22] = test system: Mus musculus; assay: Toxicity in tumor cell implanted NCr nu/nu mouse assessed as body weight change at 72.6 umol/kg, ip administered from day 3 to 6 after implantation measured on day 7; type: organism-based; conditions: in vivo
[23] = test system: KB; assay: Growth inhibition of ip dosed intraperitoneally implanted human KB cells to NCr nu/nu mouse administered from day 3 to 6 after implantation measured on day 7 by MTT-based hollow-fiber test; type: functional, organism-based
[24] = test system: Mus musculus; assay: Toxicity in tumor cell implanted NCr nu/nu mouse assessed as body weight change at 145.3 umol/kg, ip administered from day 3 to 6 after implantation measured on day 7; type: organism-based; conditions: in vivo
[25] = test system: Mus musculus; assay: Toxicity in NCr nu/nu mouse subcutaneously implanted with human KB cells assessed as mortality at 72.6 umol/kg, ip administered on day 10, 13, 16, 20 of implantation; type: organism-based; conditions: in vivo
[26] = test system: LNCaP; assay: Growth inhibition of human LNCAP cells implanted subcutaneously to NCr nu/nu mouse at 72.6 to 290.7 umol/kg, ip administered from day 3 to 6 after implantation measured on day 7 by MTT-based hollow-fiber test; type: functional
[27] = test system: Lu1; assay: Growth inhibition of human Lu1 cells implanted subcutaneously to NCr nu/nu mouse at 72.6 to 290.7 umol/kg, ip administered from day 3 to 6 after implantation measured on day 7 by MTT-based hollow-fiber test; type: functional
[28] = test system: P388; assay: Growth inhibition of mouse P388 cells implanted intraperitoneally to NCr nu/nu mouse at 72.6 to 290.7 umol/kg, ip administered from day 3 to 6 after implantation measured on day 7 by MTT-based hollow-fiber test; type: functional
[29] = test system: P388; assay: Growth inhibition of mouse P388 cells implanted subcutaneously to NCr nu/nu mouse at 72.6 to 290.7 umol/kg, ip administered from day 3 to 6 after implantation measured on day 7 by MTT-based hollow-fiber test; type: functional
[30] = test system: SK-MEL-2; assay: Growth inhibition of ip dosed intraperitoneally implanted human SK-MEL-2 cells to NCr nu/nu mouse administered from day 3 to 6 after implantation measured on day 7 by MTT-based hollow-fiber test; type: functional, organism-based
[31] = test system: SK-MEL-2; assay: Growth inhibition of human SK-MEL-2 cells implanted subcutaneously to NCr nu/nu mouse at 72.6 to 290.7 umol/kg, ip administered from day 3 to 6 after implantation measured on day 7 by MTT-based hollow-fiber test; type: functional
[32] = test system: KB; assay: Growth inhibition of human KB cells implanted subcutaneously to NCr nu/nu mouse at 72.6 to 290.7 umol/kg, ip administered from day 3 to 6 after implantation measured on day 7 by MTT-based hollow-fiber test; type: functional
[33] = test system: Mus musculus; assay: Toxicity in NCr nu/nu mouse subcutaneously implanted with human KB cells assessed as change in body weight at 145.3 umol/kg, ip administered on day 10, 13, 16, 20 of implantation; type: organism-based; conditions: in vivo
[34] = test system: Mus musculus; assay: Toxicity in NCr nu/nu mouse subcutaneously implanted with human KB cells assessed as mortality at 290.7 umol/kg, ip administered on day 10, 13, 16, 20 of implantation; type: organism-based; conditions: in vivo
[35] = test system: Lu1; assay: Growth inhibition of human Lu1 cells implanted intraperitoneally to NCr nu/nu mouse at 72.6 to 290.7 umol/kg, ip administered from day 3 to 6 after implantation measured on day 7 by MTT-based hollow-fiber test; type: functional
[36] = test system: SK-MEL-2; assay: Growth inhibition of human SK-MEL-2 cells implanted intraperitoneally to NCr nu/nu mouse at 72.6 to 290.7 umol/kg, ip administered from day 3 to 6 after implantation measured on day 7 by MTT-based hollow-fiber test; type: functional
[37] = test system: Mus musculus; assay: Toxicity in NCr nu/nu mouse subcutaneously implanted with human KB cells assessed as change in body weight at 290.7 umol/kg, ip administered on day 10, 13, 16, 20 of implantation; type: organism-based; conditions: in vivo
[38] = test system: Mus musculus; assay: Toxicity in NCr nu/nu mouse subcutaneously implanted with human KB cells assessed as change in body weight at 72.6 umol/kg, ip administered on day 10, 13, 16, 20 of implantation; type: organism-based; conditions: in vivo
[39] = test system: MCF7; assay: Growth inhibition of human MCF7 cells implanted intraperitoneally to NCr nu/nu mouse at 72.6 to 290.7 umol/kg, ip administered from day 3 to 6 after implantation measured on day 7 by MTT-based hollow-fiber test; type: functional
[40] = test system: KB; assay: Growth inhibition of ip dosed subcutaneously implanted human KB cells to NCr nu/nu mouse administered from day 3 to 6 after implantation measured on day 7 by MTT-based hollow-fiber test; type: functional, organism-based
[41] = test system: MCF7; assay: Growth inhibition of human MCF7 cells implanted subcutaneously to NCr nu/nu mouse at 72.6 to 290.7 umol/kg, ip administered from day 3 to 6 after implantation measured on day 7 by MTT-based hollow-fiber test; type: functional
[42] = test system: SW626; assay: Growth inhibition of human SW626 cells implanted subcutaneously to NCr nu/nu mouse at 72.6 to 290.7 umol/kg, ip administered from day 3 to 6 after implantation measured on day 7 by MTT-based hollow-fiber test; type: functional
[43] = test system: LNCaP; assay: Growth inhibition of human LNCAP cells implanted intraperitoneally to NCr nu/nu mouse at 72.6 to 290.7 umol/kg, ip administered from day 3 to 6 after implantation measured on day 7 by MTT-based hollow-fiber test; type: functional
[44] = test system: Mus musculus; assay: Toxicity in human Lu1 cells implanted NCr nu/nu mouse assessed as body weight loss at 252 umol/kg, ip administered from day 3 to 6 after implantation measured on day 7 by hollow-fiber test; type: organism-based; conditions: in vivo
[45] = test system: Lu1; assay: Growth inhibition of human Lu1 cells implanted intraperitoneally to NCr nu/nu mouse at15.5 to 124 umol/kg, ip administered from day 3 to 6 after implantation measured on day 7 by MTT-based hollow-fiber test; type: functional
[46] = test system: Mus musculus; assay: Toxicity in human Lu1 cells implanted NCr nu/nu mouse at 516 umol/kg, ip administered from day 3 to 6 after implantation measured on day 7 by hollow-fiber test; type: organism-based; conditions: in vivo
[47] = test system: Mus musculus; assay: Toxicity in NCr nu/nu mouse subcutaneously implanted with human Lu1 cells assessed as body weight change at 15.5 to 124 umol/kg, ip administered from day 3 to 6 after implantation measured on day 7; type: organism-based; conditions: in vivo
[48] = test system: Lu1; assay: Growth inhibition of human Lu1 cells implanted subcutaneously to NCr nu/nu mouse at15.5 to 124 umol/kg, ip administered from day 3 to 6 after implantation measured on day 7 by MTT-based hollow-fiber test; type: functional

SMILES: C=C1C(=O)O[C@@H]2C[C@]3(C)CC[C@]4(C)[C@H](CC[C@@H]5[C@@]6(C)CCC(=O)C(C)(C)[C@@H]6CC[C@]54C)[C@H]3[C@H]12 [OCHRACEOLIDE A]
- IC50 [1]: 14.8 µM
- Activity [2]: 0.5 g
- IC50 [3]: 19.2 µM
- IC50 [4]: 0.58 µM
- IC50 [5]: 32.3 µM
- IC50 [6]: 3.5 µM
- IC50 [7]: > 44.2 µM
- IC50 [8]: 2.2 µM
- inhibition in vivo at 553.1 µmol/kg [9]: 0%
- inhibition in vivo at 553.1 µmol/kg [10]: 0%
- IC50 [11]: 20.4 µM
- IC50 [12]: 16.6 µM
- IC50 [13]: 13.1 µM
- IC50 [14]: 24.3 µM
- IC50 [15]: 35.4 µM

SMILES: C=C1C(=O)[C@@]23CC[C@@H]4[C@@]5(C)CCC[C@@]4(OC5=O)[C@@]2(C)CC[C@]1(OC)C3
- Activity [16]: Dose-dependent effect
- Activity [17]: Active
- Activity [18]: Non-toxic
- inhibition (INH) [19]: 21.6%
- inhibition (INH) [20]: 0%
- Activity [21]: 0.85 g
- Activity [22]: 0.74 g
- Activity [23]: Dose-dependent effect
- IC50 [1]: 1.2 µM
- Activity [24]: 0.03 g
- Activity [25]: Non-toxic
- IC50 [3]: 3.8 µM
- inhibition (INH) [26]: 0%
- inhibition (INH) [27]: 0%
- IC50 [5]: 3.5 µM
- inhibition (INH) [28]: 0%
- inhibition (INH) [29]: 0%
- IC50 [6]: 0.3 µM
- Activity [30]: Dose-dependent effect
- inhibition (INH) [31]: 11.1%
- inhibition (INH) [32]: 5.7%
- Activity [33]: 7.6%
- IC50 [7]: 5.2 µM
- Activity [34]: Non-toxic
- inhibition (INH) [35]: 0%
- inhibition (INH) [36]: 15.5%
- Activity [37]: 6.6%
- Activity [38]: 7.9%
- IC50 [11]: 6.4 µM
- inhibition (INH) [39]: 34.4%
- Activity [40]: Dose-dependent effect
- IC50 [12]: 0.9 µM
- inhibition (INH) [41]: 0%
- IC50 [13]: 1.2 µM
- IC50 [14]: 2 µM
- inhibition (INH) [42]: 16.3%
- IC50 [15]: 0.6 µM
- inhibition (INH) [43]: 50.6%

SMILES: CC(O)c1cc2c(o1)C(=O)c1ccccc1C2=O (stereo not drawn)
- IC50 [1]: 1.2 µM
- IC50 [3]: 7.4 µM
- IC50 [5]: 13.2 µM
- Activity [44]: Toxic
- IC50 [6]: 0.4 µM
- IC50 [7]: 4.9 µM
- IC50 [11]: 2.1 µM
- inhibition (INH) [45]: 0%
- IC50 [12]: 2.5 µM
- Activity [46]: Toxic
- Activity [47]: -0.4 g
- IC50 [13]: 14.5 µM
- IC50 [14]: 0.8 µM
- inhibition (INH) [48]: 0%
- IC50 [15]: 1.2 µM
